Target: T1, EGFR TMLRCS (Homo sapiens, UniProt P00533, C797S/L858R/T790M)
T1 construct: host or cells: BaF3-TMLRCS (Ba/F3 cells, kept under puromycin selection)
Test: HTRF Phospho EGFR TMLRCS Assay (Cellular)
Assay type: cell-based
Conditions: BaF3-TMLRCS cell line, 4 hours incubation, Phospho-EGFR HTRF readout
Procedure: HTRF Phospho EGFR TMLRCS Assay (Cellular)
BaF3-TMLRCS cell line were obtained from Crownbio (San Diego, CA, USA). Cells were maintained at 37° C., 5% CO2 in RPMI ATCC (Gibco 31870)+2 mM Glutamine+0.5 μg/ml Puromycin supplemented with 10% fetal bovine serum (FBS) (Gibco).
Cells are transferred as above to Greiner Bio-One, Nr. 784-08 micro-titerplate at 20000 cells/well in 12.5 μl of growth medium/well after the plates had been pre-filled with 12.5 nl of DMSO solutions of the to be tested compounds (in dose response) or DMSO only. After spinning the plates at 300×g for 30 seconds the cells were incubated for 4 hours at 37 C, 5% CO2, 95% humidity. The cells were lysed by adding to the compound mix 4 μl/well of the supplemented lysis buffer (Cis-bio, Phospho-EGFR HTRF kit, 64EG1PEH), followed by incubation for 30 min at room temperature with shaking (400 rpm). The plates were then frozen and stored overnight at −80 C. On the next day and after thawing the plates, 4 μl of a mixture of anti-Phospho-EGFR Cryptate and of anti-Phospho-EGFR-d2 antibody solutions prepared in the supplied detection buffer was added to each well. The lidded plates were then incubated for 4 h at room temperature before reading the fluorescence emission at 616 and 665 nm using an Envision reader (Perkin Elmer). Data was analyzed in similar fashion as above using the normalized ratio of the 665 to 616 signals multiplied by 10000.

T1 sequence (P00533 25-1210 T790M/C797S/L858R): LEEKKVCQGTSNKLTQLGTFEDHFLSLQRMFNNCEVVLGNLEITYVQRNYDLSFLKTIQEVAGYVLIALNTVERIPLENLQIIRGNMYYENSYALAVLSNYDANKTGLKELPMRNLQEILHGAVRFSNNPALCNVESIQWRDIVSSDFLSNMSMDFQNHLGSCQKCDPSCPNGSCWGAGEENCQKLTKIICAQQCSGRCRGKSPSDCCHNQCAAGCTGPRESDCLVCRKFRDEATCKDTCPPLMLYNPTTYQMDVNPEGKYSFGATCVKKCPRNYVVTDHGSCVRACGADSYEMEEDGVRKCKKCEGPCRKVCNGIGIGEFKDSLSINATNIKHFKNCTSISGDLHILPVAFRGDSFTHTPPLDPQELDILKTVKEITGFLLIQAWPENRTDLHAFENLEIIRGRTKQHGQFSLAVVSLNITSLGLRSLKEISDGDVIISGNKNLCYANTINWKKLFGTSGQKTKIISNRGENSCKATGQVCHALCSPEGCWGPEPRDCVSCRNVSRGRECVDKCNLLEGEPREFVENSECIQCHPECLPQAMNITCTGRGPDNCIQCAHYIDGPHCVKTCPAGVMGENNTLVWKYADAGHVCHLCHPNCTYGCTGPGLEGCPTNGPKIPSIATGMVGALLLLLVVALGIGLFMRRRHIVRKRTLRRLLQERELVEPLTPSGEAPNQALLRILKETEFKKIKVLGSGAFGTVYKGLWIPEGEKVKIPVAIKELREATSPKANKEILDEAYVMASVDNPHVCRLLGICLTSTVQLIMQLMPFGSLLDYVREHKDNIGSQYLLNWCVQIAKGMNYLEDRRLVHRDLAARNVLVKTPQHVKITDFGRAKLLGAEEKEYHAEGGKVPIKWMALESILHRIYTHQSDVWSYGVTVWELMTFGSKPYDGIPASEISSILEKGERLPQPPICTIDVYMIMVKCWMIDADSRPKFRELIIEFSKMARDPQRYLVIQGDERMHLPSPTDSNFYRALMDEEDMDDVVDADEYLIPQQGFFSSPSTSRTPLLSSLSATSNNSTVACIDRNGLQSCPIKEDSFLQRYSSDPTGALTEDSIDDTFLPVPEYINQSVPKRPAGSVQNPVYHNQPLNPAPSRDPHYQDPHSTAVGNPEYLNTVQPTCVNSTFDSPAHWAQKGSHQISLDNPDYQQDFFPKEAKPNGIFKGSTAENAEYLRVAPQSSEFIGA

SMILES | IC50 [nM]
CCN(CC)CC1(c2ccc(-c3cc(C)c4cn(C(C(=O)Nc5nccs5)c5ncn6c5C[C@@H](F)C6)nc4c3C)cc2)CC1 (stereo partly drawn) [Example 122, 2-(6-(4-(1-((Diethylamino)methyl)cyclopropyl)phenyl)-4,7-dimethyl-2H-indazol-2-yl) ((R)-6-fluoro-6,7-dihydro-5H-pyrrolo[1,2-c]imidazol-1-yl)-N-(thiazol-2-yl)acetamide] | 19
O=C(Nc1nccs1)C(c1ncn2c1C[C@@H](F)C2)n1cc2c(Cl)cc(-c3ccc(OCCN4CC5(CC(O)C5)C4)cc3)c(Cl)c2n1 (stereo partly drawn) [Example 88, 2-(4,7-Dichloro-6-(4-(2-(6-hydroxy-2-azaspiro[3.3]heptan-2-yl)ethoxy)phenyl)-2H-indazol-2-yl)-2-((R)-6-fluoro-6,7-dihydro-5H-pyrrolo[1,2-c]imidazol-1-yl)-N-(thiazol-2-yl)acetamide] | 7
O=C(Nc1nccs1)C(c1ncn2c1C[C@@H](F)C2)n1cc2c(Cl)cc(-c3ccc(N4CCC(O)CC4)cc3)c(Cl)c2n1 (mixture of isomers) [Example 39, rac-2-(4,7-Dichloro-6-(4-(4-hydroxypiperidin-1-yl)phenyl)-2H-indazol-2-yl)-2-((R)-6-fluoro-6,7-dihydro-5H-pyrrolo[1,2-c]imidazol-1-yl)-N-(thiazol-2-yl)acetamide] | 4
CN1CCC(Oc2ccc(-c3cc(Cl)c4cn(C(C(=O)Nc5nccs5)c5ncn6c5C[C@@H](F)C6)nc4c3Cl)cc2)CC1 (stereo partly drawn) [Example 85, 2-(4,7-Dichloro-6-(4-((l-methylpiperidin-4-yl)oxy)phenyl)-2H-indazol-2-yl)-2-((R)-6-fluoro-6,7-dihydro-5H-pyrrolo[1,2-c]imidazol-1-yl)-N-(thiazol-2-yl)acetamide] | 4
CCN1CC(c2ccc(-c3cc(Cl)c4cn(C(C(=O)Nc5nccs5)c5ncn6c5C[C@@H](F)C6)nc4c3Cl)cc2)C1 (stereo partly drawn) [Example 83, 2-(4,7-Dichloro-6-(4-(1-ethylazetidin-3-yl)phenyl)-2H-indazol-2-yl)-2-((R)-6-fluoro-6,7-dihydro-5H-pyrrolo[1,2-c]imidazol-1-yl)-N-(thiazol-2-yl)acetamide] | 10
O=C(Nc1nccs1)C(c1ncn2c1C[C@@H](F)C2)n1cc2c(Cl)cc(-c3ccc(C4CC(CN5CCC(O)CC5)C4)cc3)c(Cl)c2n1 (mixture of isomers) [Example 76, rac-2-(4,7-Dichloro-6-(4-(34(4-hydroxypiperidin-1-yl)methyl)cyclobutyl)phenyl)-2H-indazol-2-yl)-2-((R)-6-fluoro-6,7-dihydro-5H-pyrrolo[1,2-c]imidazol-1-yl)-N-(thiazol-2-yl)acetamide] | 11
O=C(Nc1nccs1)C(c1ncn2c1C[C@@H](F)C2)n1cc2c(Cl)cc(-c3ccc(CCN4CCC(O)C4)cc3)c(Cl)c2n1 (mixture of isomers) [Example 70, rac-2-(4,7-Dichloro-6-(4-(2-(3-hydroxypyrrolidin-1-yl)ethyl)phenyl)-2H-indazol-2-yl) ((R)-6-fluoro-6,7-dihydro-5H-pyrrolo[1,2-c]imidazol-1-yl)-N-(thiazol-2-yl)acetamide] | 8
CN(C)Cc1ccc(-c2cc(Cl)c3cn(C(C(=O)Nc4nccs4)c4ncn5c4C[C@@H](F)C5)nc3c2Cl)cc1 (mixture of isomers) [Example 48, rac-2-(4,7-Dichloro-6-(4-((dimethylamino)methyl)phenyl)-2H-indazol-2-yl)-2-((R)-6-fluoro-6,7-dihydro-5H-pyrrolo[1,2-c]imidazol-1-yl)-N-(thiazol-2-yl)acetamide] | 8
N#Cc1cc(-c2cc(Cl)c3cn(C(C(=O)Nc4nccs4)c4ncn5c4C[C@@H](F)C5)nc3c2Cl)ccc1N1CCOCC1 (mixture of isomers) [Example 36, rac-2-(4,7-Dichloro-6-(3-cyano-4-morpholinophenyl)-2H-indazol-2-yl)-2-((R)-6-fluoro-6,7-dihydro-5H-pyrrolo[1,2-c]imidazol-1-yl)-N-(thiazol-2-yl)acetamide] | 9
O=C(Nc1nccs1)C(c1ncn2c1C[C@@H](F)C2)n1cc2c(Cl)cc(-c3ccc(CCN4CCC(CO)CC4)cc3)c(Cl)c2n1 (mixture of isomers) [Example 51, rac-2-(4,7-Dichloro-6-(4-(2-(4-(hydroxymethyl)piperidin-1-yl)ethyl)phenyl)-2H-indazol-2-yl)-2-((R)-6-fluoro-6,7-dihydro-5H-pyrrolo[1,2-c]imidazol-1-yl)-N-(thiazol-2-yl)acetamide] | 10
O=C(Nc1nccs1)C(c1ncn2c1C[C@@H](F)C2)n1cc2c(Cl)cc(-c3ccc(N4CCN5CCC4C5)cc3)c(Cl)c2n1 (mixture of isomers) [Example 72, rac-2-(6-(4-(1,4-Diazabicyclo[3.2.1]octan-4-yl)phenyl)-4,7-dichloro-2H-indazol-2-yl)-2-((R)-6-fluoro-6,7-dihydro-5H-pyrrolo[1,2-c]imidazol-1-yl)-N-(thiazol-2-yl)acetamide] | 5
CCN1CC2(CCCN(c3ccc(-c4cc(Cl)c5cn(C(C(=O)Nc6nccs6)c6ncn7c6C[C@@H](F)C7)nc5c4Cl)cc3)C2)C1 (stereo partly drawn) [Example 82] | 11
Cc1cc(-c2ccc(N3CCOCC3)cc2)c(C)c2nn(C(C(=O)Nc3nccs3)c3ncn4c3C[C@@H](F)C4)cc12 (stereo partly drawn) [Example 118, 2-(4,7-Dimethyl-6-(4-morpholinophenyl)-2H-indazol-2-yl)-2-((R)-6-fluoro-6,7-dihydro-5H-pyrrolo[1,2-c]imidazol-1-yl)-N-(thiazol-2-yl)acetamide] | 7
O=C(Nc1nccs1)C(c1ncn2c1C[C@@H](F)C2)n1cc2c(Cl)cc(-c3ccc(C4CN(CCO)C4)cc3)c(Cl)c2n1 (stereo partly drawn) [Example 84, 2-(4,7-Dichloro-6-(4-(1-(2-hydroxyethyl)azetidin-3-yl)phenyl)-2H-indazol-2-yl)-2-((R)-6-fluoro-6,7-dihydro-5H-pyrrolo[1,2-c]imidazol-1-yl)-N-(thiazol-2-yl)acetamide] | 12
CCN1CCN(c2ccc(-c3cc(Cl)c4cn(C(C(=O)Nc5nccs5)c5ncn6c5C[C@@H](F)C6)nc4c3Cl)cc2)CC1 (stereo partly drawn) [Example 26, 2-(4,7-Dichloro-6-(4-(4-ethylpiperazin-1-yl)phenyl)-2H-indazol-2-yl)-2-((R)-6-fluoro-6,7-dihydro-5H-pyrrolo[1,2-c]imidazol-1-yl)-N-(thiazol-2-yl)acetamide] | 4
O=C(Nc1nccs1)C(c1ncn2c1CCC2)n1cc2c(Cl)cc(-c3ccc(N4CCOCC4)cc3)c(Br)c2n1 (stereo not drawn) [Example 134, 2-(7-Bromo-4-chloro-6-(4-morpholinophenyl)-2H-indazol-2-yl)-2-(6,7-dihydro-5H-pyrrolo[1,2-c]imidazol-1-yl)-N-(thiazol-2-yl)acetamide] | 32
Cc1cc(-c2ccc(OCCN3CCC(CO)CC3)cc2)c(Cl)c2nn(C(C(=O)Nc3nccs3)c3ncn4c3C[C@@H](F)C4)cc12 (mixture of isomers) [Example 132, rac-2-(7-Chloro-6-(4-(2-(4-(hydroxymethyl)piperidin-1-yl)ethoxy)phenyl)-4-methyl-2H-indazol-2-yl)-2-((R)-6-fluoro-6,7-dihydro-5H-pyrrolo[1,2-c]imidazol-1-yl)-N-(thiazol-2-yl)acetamide] | 7
CC(F)CN1CCC(c2ccc(-c3cc(Cl)c4cn(C(C(=O)Nc5nccs5)c5ncn6c5C[C@@H](F)C6)nc4c3Cl)cc2)CC1 (stereo partly drawn) [Example 44, 2-(4,7-Dichloro-6-(4-(1-(2-fluoropropyl)piperidin-4-yl)phenyl)-2H-indazol-2-yl)-2-((R)-6-fluoro-6,7-dihydro-5H-pyrrolo[1,2-c]imidazol-1-yl)-N-(thiazol-2-yl)acetamide] | 13
